Test results taken from ChEMBL document CHEMBL3091422, “Endothelial lipase inhibitors for the treatment of atherosclerosis and cardiovascular disorders” (ACS Med Chem Lett, 2013).

Tests used:
Endothelial lipase [1] = molecular target: T1, Endothelial lipase (Mus musculus, UniProt Q9WVG5); assay: Inhibition of mouse endothelial lipase using PLAi as substrate measured for 30 mins by cell-based fluorescence assay
T1 sequence (Q9WVG5 whole entry): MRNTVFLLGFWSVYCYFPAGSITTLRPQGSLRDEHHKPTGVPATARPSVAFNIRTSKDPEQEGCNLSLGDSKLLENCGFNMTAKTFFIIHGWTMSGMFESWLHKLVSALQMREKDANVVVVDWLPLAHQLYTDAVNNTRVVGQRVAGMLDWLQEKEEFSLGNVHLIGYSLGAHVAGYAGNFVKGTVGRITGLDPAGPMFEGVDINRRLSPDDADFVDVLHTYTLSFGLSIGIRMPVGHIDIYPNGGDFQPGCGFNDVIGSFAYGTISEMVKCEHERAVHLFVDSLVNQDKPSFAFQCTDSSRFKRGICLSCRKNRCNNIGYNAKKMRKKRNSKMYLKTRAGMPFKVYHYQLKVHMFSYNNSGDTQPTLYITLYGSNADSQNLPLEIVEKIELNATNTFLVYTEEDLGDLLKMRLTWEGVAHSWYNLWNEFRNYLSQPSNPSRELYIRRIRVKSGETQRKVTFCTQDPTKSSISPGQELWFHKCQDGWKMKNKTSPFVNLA

Endothelial lipase [2] = molecular target: T2, Endothelial lipase (Homo sapiens, UniProt Q9Y5X9); assay: Inhibition of human endothelial lipase using PLAi as substrate measured for 30 mins by cell-based fluorescence assay
T2 sequence (Q9Y5X9 whole entry): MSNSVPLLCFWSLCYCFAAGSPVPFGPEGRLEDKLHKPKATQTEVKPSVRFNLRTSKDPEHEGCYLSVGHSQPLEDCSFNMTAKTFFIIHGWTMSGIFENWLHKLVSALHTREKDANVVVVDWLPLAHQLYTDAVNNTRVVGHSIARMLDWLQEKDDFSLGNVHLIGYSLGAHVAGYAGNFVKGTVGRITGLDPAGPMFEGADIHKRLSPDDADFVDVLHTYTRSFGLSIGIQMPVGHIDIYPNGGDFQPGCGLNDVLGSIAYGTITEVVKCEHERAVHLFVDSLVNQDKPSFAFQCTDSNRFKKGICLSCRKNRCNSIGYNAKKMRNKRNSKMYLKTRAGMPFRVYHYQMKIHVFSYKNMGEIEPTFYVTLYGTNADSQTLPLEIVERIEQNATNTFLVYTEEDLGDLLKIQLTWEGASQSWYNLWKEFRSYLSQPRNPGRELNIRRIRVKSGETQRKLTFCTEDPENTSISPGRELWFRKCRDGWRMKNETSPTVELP

SMILES | IC50 (Endothelial lipase [1]) [nM] | IC50 (Endothelial lipase [2]) [nM]
FC(F)(F)c1c(CCCc2ccccc2)n2c3c(cccc13)SCC2 | 33300 | 33300
COc1cc2c3c(c1)c(C(F)(F)F)c(CCc1ccccc1)n3CCC2 | 17 | 14
Nc1cc2c3c(c1)c(C(F)(F)F)c(CCCc1ccccc1)n3CCC2 | 4 | 4
